The test system of one experiment is E. coli containing KPC-2. Put plainly: MIC by broth microdilution, E. coli containing KPC-2 (Ec KPC2 Iso). The experiment is classed as cell-based. The following applies: Escherichia coli, read-out: Ec KPC2 Iso (MIC), E. coli containing KPC-2 (carbapenemase from Klebsiella pneumoniae). The method, boiled down: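 Host E. coli BW25113 pspB carrying multicopy pBAD18-kan plasmid with constitutive TEM-promoter KPC-2 expression (periplasmic signal sequence); broth microdilution per CLSI in cation-adjusted Mueller-Hinton broth, inoculum ~5×10^5 CFU/mL, compounds twofold serially diluted from DMSO masters (10% DMSO in dilution series added).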

The test system of a further experiment is E. coli strain 25922. Put plainly: MIC by broth microdilution, E. coli strain 25922. The experiment is classed as cell-based. The following applies: Escherichia coli, 25922, E. coli strain 25922; read-out: Ec 25922 (MIC). The procedure, abridged:
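CLSI broth microdilution in cation-adjusted Mueller-Hinton broth, inoculum about 5×10^5 CFU/mL, 10% DMSO from the diluted series, 20 h at 35-37° C. MIC is the lowest concentration preventing visible growth, read by eye and at 600 nm.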

Here are results for eight compounds from patent US10369138B2, “Monobactam organic compounds for the treatment of bacterial infections” (Novartis AG, priority 2014, dated 2019).

≈ marks a conversion by molar mass, not a printed value.

As to `CC(C)(O/N=C(\C(=O)N[C@@H]1C(=O)N(S(=O)(=O)O)[C@@H]1Cc1cn(CCN)nn1)c1csc(N)n1)C(=O)O` [Example 101, 2-(((Z)-(2-(((2R,3S)-2-((1-(2-aminoethyl)-1H-1,2,3-triazol-4-yl)methyl)-4-oxo-1-sulfoazetidin-3-yl)amino)-1-(2-aminothiazol-4-yl)-2-oxoethylidene)amino)oxy)-2-methylpropanoic acid], the minimum inhibitory concentration (MIC) in the experiment with E. coli containing KPC-2 and in the experiment on E. coli strain 25922 was 1 µg/mL (≈ 1.83 µM) each time.

Turning to `NCCNCc1cnn(C[C@@H]2[C@H](NC(=O)/C(=N\OC3(C(=O)O)CC3)c3csc(N)n3)C(=O)N2S(=O)(=O)O)n1` [Example 102, 1-(((Z)-(2-(((2R,3S)-2-((4-(((2-aminoethyl)amino)methyl)-2H-1,2,3-triazol-2-yl)methyl)-4-oxo-1-sulfoazetidin-3-yl)amino)-1-(2-aminothiazol-4-yl)-2-oxoethylidene)amino)oxy)cyclopropanecarboxylic acid], the MIC with E. coli containing KPC-2 and in the experiment with E. coli strain 25922 was 0.25 µg/mL (≈ 0.437 µM) in each case.

Regarding `N=CNC[C@@H]1CN(C[C@@H]2[C@H](NC(=O)/C(=N\OC3(C(=O)O)CC3)c3csc(N)n3)C(=O)N2S(=O)(=O)O)C(=O)O1` [Example 104, 1-(((Z)-(1-(2-aminothiazol-4-yl)-2-(((2R,3S)-2-(((R)-5-(formimidamidomethyl)-2-oxooxazolidin-3-yl)methyl)-4-oxo-1-sulfoazetidin-3-yl)amino)-2-oxoethylidene)amino)oxy)cyclopropanecarboxylic acid], the MIC in the experiment with E. coli containing KPC-2 and with E. coli strain 25922 was above 64 µg/mL in each case.

`CC(C)(O/N=C(\C(=O)N[C@@H]1C(=O)N(S(=O)(=O)O)[C@@H]1Cn1cnc(C#N)n1)c1csc(N)n1)C(=O)O` [Example 105, 2-(((Z)-(1-(2-aminothiazol-4-yl)-2-(((2R,3S)-2-((3-cyano-1H-1,2,4-triazol-1-yl)methyl)-4-oxo-1-sulfoazetidin-3-yl)amino)-2-oxoethylidene)amino)oxy)-2-methylpropanoic acid]: the results for the minimum inhibitory concentration (MIC) in the experiment with E. coli containing KPC-2 and with E. coli strain 25922 were 32 µg/mL (≈ 60.7 µM) and 16 µg/mL (≈ 30.3 µM), respectively.

`Nc1nc(/C(=N/OC2(C(=O)O)CC2)C(=O)N[C@@H]2C(=O)N(S(=O)(=O)O)[C@@H]2Cn2ncc(CN3CC(N)C3)n2)cs1` [Example 106, 1-(((Z)-(2-(((2R,3S)-2-((4-((3-aminoazetidin-1-yl)methyl)-2H-1,2,3-triazol-2-yl)methyl)-4-oxo-1-sulfoazetidin-3-yl)amino)-1-(2-aminothiazol-4-yl)-2-oxoethylidene)amino)oxy)cyclopropanecarboxylic acid]: the MIC in the experiment on E. coli containing KPC-2 and with E. coli strain 25922 was at most 0.06 µg/mL in each case.

On to `N=C(N)c1ccc(OC[C@H](O/N=C(\C(=O)N[C@@H]2C(=O)N(S(=O)(=O)O)[C@@H]2Cn2cncn2)c2csc(N)n2)C(=O)O)cc1` [Example 107, (S)-2-(((Z)-(2-(((2R,3S)-2-((1H-1,2,4-triazol-1-yl)methyl)-4-oxo-1-sulfoazetidin-3-yl)amino)-1-(2-aminothiazol-4-yl)-2-oxoethylidene)amino)oxy)-3-(4-carbamimidoylphenoxy)propanoic acid], for which the MIC in the experiment with E. coli containing KPC-2 and in the experiment on E. coli strain 25922 was 0.25 µg/mL (≈ 0.402 µM) in each case.

Regarding `Nc1nc(/C(=N/OC2(C(=O)O)CC2)C(=O)N[C@@H]2C(=O)N(S(=O)(=O)O)[C@@H]2CN2CCNC2=O)cs1` [Example 108, 1-(((Z)-(1-(2-aminothiazol-4-yl)-2-oxo-2-(((3S,4R)-2-oxo-4-((2-oxoimidazolidin-1-yl)methyl)-1-sulfoazetidin-3-yl)amino)ethylidene)amino)oxy)cyclopropanecarboxylic acid], the MIC in the experiment on E. coli containing KPC-2 was at most 0.06 µg/mL; in the experiment with E. coli strain 25922, 0.125 µg/mL (≈ 0.242 µM).

Turning to `NCc1nn(C[C@@H]2[C@H](NC(=O)/C(=N\OC3(C(=O)O)CC3)c3csc(N)n3)C(=O)N2S(=O)(=O)O)nc1CN` [Example 109, 1-(((Z)-(1-(2-aminothiazol-4-yl)-2-(((2R,3S)-2-((4,5-bis(aminomethyl)-2H-1,2,3-triazol-2-yl)methyl)-4-oxo-1-sulfoazetidin-3-yl)amino)-2-oxoethylidene)amino)oxy)cyclopropanecarboxylic acid], the MIC came out at 0.25 µg/mL (≈ 0.448 µM) in the experiment with E. coli containing KPC-2 and 0.125 µg/mL (≈ 0.224 µM) in the experiment with E. coli strain 25922.
